Test results as given in ChEMBL document CHEMBL1201862, “PubChem BioAssay data set” (2004).
Calls of active or inactive are those of the source.

Legend:
Kallikrein-7 = Kallikrein-7 (Homo sapiens, UniProt P49862); experiment: Fluorescence Intensity-based biochemical primary high throughput dose response assay to identify activators of kallikrein-7 (K7) zymogen.
[1] = HIV Env cell-cell fusion inhibitors, dose response, HIV entry, plate reader, dry powder (AID 687023); format: functional, cell-based
[2] = inhibitors of orthopox intermediate gene expression, dose response, cell-based, single fluorophore reporter, dry powder (AID 1117271); format: functional
[3] = Orthopox viral replication plaque formation Measured in Cell-Based and Microorganism Combination System Using Imaging - 2142-05_Inhibitor_Dose_DryPowder_Activity.; format: functional
[4] = A549 cell cytotoxicity, dose response, CellTiter-Glo luminescence, dry powder, set 17 (AID 1117284); format: functional, cell-based
[5] = Single fluorophore orthopox expression reporter, late gene expression Measured in Cell-Based and Microorganism Combination System Using Plate Reader - 2142-08_Inhibitor_Dose_DryPowder_Activity.; format: functional
[6] = target: T1, Low molecular weight phosphotyrosine protein phosphatase (Homo sapiens, UniProt P24666); experiment: LMPTP phosphatase inhibitors, dose response, biochemical, OMFP substrate, fluorescence intensity, set 2 (AID 743307); format: functional
T1 sequence (P24666 whole entry): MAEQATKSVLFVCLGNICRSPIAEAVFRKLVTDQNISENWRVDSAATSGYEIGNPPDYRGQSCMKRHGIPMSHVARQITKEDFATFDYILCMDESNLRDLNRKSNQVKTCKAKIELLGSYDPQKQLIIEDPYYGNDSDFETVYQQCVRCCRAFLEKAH

[7] = target: T1, Low molecular weight phosphotyrosine protein phosphatase; experiment: LMPTP phosphatase inhibitors, colorimetric pNPP readout, dose response, orthogonal assay, biochemical, absorbance, pNPP substrate, LMPTP-A isoform, set 2 (AID 743308); format: functional
[8] = Plasmodium falciparum Dd2 Sybr green parasite growth Measured in Cell-Based and Microorganism Combination System Using Plate Reader - 2153-01_Inhibitor_Dose_DryPowder_Activity_Set3.; format: functional
[9] = P. falciparum Dd2 growth inhibitors, dose response, SYBR Green, dry powder samples, set 9 (AID 1159568); format: functional, cell-based
[10] = P. falciparum ATP4 D1247Y mutant growth inhibitors, dose response, NITD609-resistant line, SYBR Green, dry powder (AID 1159571); format: functional, cell-based;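 further: parasites synchronized at ring stage by sorbitol before testing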
[11] = P. falciparum Dd2 growth inhibitors, dose response, SYBR Green, dry powder samples (AID 1159566); format: functional, cell-based;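 further: potency for growth inhibition with lower SYBR green DNA signal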
[12] = P. falciparum 3D7-ScDHODH growth inhibitors, dose response, SYBR Green, dry powder samples (AID 1159570); format: functional, cell-based;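 further: parasite growth measured after 72 hours of compound exposure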
[13] = P. falciparum Dd2 growth inhibitors, dose response, SYBR Green, cherry-picked samples (AID 1159567); format: functional, cell-based
[14] = P. falciparum Dd2 growth inhibitors, dose response, SYBR Green, dry powder samples, set 4 (AID 1159572); format: functional, cell-based
[15] = HepG2 cell cytotoxicity, dose response, cytotoxicity control, cherry-picked samples (AID 1159577); format: functional, cell-based
[16] = HepG2 cell cytotoxicity, dose response, cytotoxicity control, plate reader, dry powder samples (AID 1159569); format: functional, cell-based;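 further: inhibitor potency with signal falling toward the positive control level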
BJ [17] = experiment: cytotoxicity toward Ras-transformed BJeLR fibroblasts, dose response, cell-based, alamar blue fluorescence, cherrypicked samples (AID 2631); format: functional; conditions: Homo sapiens;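 further: confirmatory dose-response assay in RAS-dependent BJ fibroblasts engineered with TERT, LT and ST, with cytotoxicity read by fluorescence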
BJ [18] = experiment: cells; format: functional, cell-based; conditions: Homo sapiens
BJ [19] = experiment: cytotoxicity toward BJ-TERT-LT-ST fibroblasts, dose response, cell-based, RAS-independent, luminescence (AID 1935); format: functional; conditions: Homo sapiens;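 further: BJ fibroblasts immortalized with TERT plus LT and ST oncogenes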
[20] = Concentration-dependent survival of SW480 colon cancer line, luminescence detection with CellTiter-Glo, half-maximal inhibitory concentration (AID 1117338); format: functional
[21] = HCT116 cell viability decrease, GSK3B pretreatment – CellTiter-Glo, IC50, dose response (AID 1117339); format: functional; conditions: HCT-116
[22] = CellTiter-Glo luminescent dose response of DLD-1 viability loss (AID 1117352); format: functional
[23] = HeLa 4N DNA content increase, dose response, cell-based, IC50 (AID 1117351); format: functional
[24] = cytotoxicity toward HCT116 cells – cell-based, CellTiter-Glo luminescence, IC50, dose response (AID 1117332); format: functional; conditions: HCT-116
[25] = HeLa 2N DNA content increase, dose response, cell-based, IC50 (AID 1117349); format: functional
[26] = RKO cell viability reduction, dose response, CellTiter-Glo luminescence (AID 1117322); format: functional
[27] = cytotoxicity toward HT-29 cells – cell-based, CellTiter-Glo luminescence, IC50, dose response (AID 1117330); format: functional
[28] = cytotoxicity toward DRD oncogenic fibroblasts, dose response, cell-based, non-viral oncogenic, luminescence (AID 1934); format: functional; conditions: Homo sapiens
[29] = cytotoxicity toward Colo320 cells – cell-based, CellTiter-Glo luminescence, IC50, dose response (AID 1117334); format: functional; conditions: COLO 320
BJ [30] = experiment: cytotoxicity toward BJ-TERT fibroblasts, dose response, cell-based, RAS-independent, luminescence (AID 1933); format: functional; conditions: Homo sapiens
[31] = SNU-C1 cell viability reduction, dose response, CellTiter-Glo luminescence (AID 1117323); format: functional, cell-based
[32] = Dose-response inhibition of insulin secretion in a rat insulinoma line at 5 mM glucose (AID 1117331); format: functional, cell-based; conditions: INS-1E
cells = format: functional, cell-based; conditions: INS-1E

Chain of Kallikrein-7 (P49862 whole entry, the tested form may be a part): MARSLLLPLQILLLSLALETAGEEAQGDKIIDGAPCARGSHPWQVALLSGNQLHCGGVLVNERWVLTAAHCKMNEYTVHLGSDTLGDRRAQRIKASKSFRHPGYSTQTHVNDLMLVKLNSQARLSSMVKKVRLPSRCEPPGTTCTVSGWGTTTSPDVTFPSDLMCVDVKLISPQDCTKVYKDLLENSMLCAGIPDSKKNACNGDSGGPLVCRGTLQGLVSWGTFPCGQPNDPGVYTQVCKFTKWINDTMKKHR

Q: With `CN(C)c1ccc(-c2cccc3nccn23)cc1` as the molecule, how does the EC50 (Kallikrein-7) read?
A: > 69.5 µM (inactive)

Q: Which AC50 [1] does the source give for `Cc1noc(C)c1S(=O)(=O)Nc1cccc2c1O[C@H](CN(C)Cc1ccc(C(F)(F)F)cc1)[C@@H](C)CN([C@@H](C)CO)C2=O` here?
A: > 70 µM (inactive)

Q: Which AC50 [2] does the source give for `Cc1ccccc1-c1ccc(CN(C)C[C@@H]2Oc3cc(C#C[C@@H](C)O)ccc3S(=O)(=O)N([C@@H](C)CO)C[C@@H]2C)cc1` here?
A: 1.65 µM (active)

Q: What about the AC50 [3] of the same molecule?
A: 2 µM (active)

Q: And the AC50 [4]?
A: 34.6 µM (active)

Q: And the AC50 [5]?
A: 0.768 µM (active)

Q: For `Cc1ccc(-c2cc(NCCCN3CCCCC3)c3ccccc3n2)cc1`, which IC50 [6] is on record?
A: 1.34 µM (active)

Q: What about the IC50 [7] of the same molecule?
A: 2.99 µM (active)

Q: With `COc1ccccc1NC(=O)Nc1ccc2c(c1)OC[C@@H](C)N(Cc1ccccc1Cl)C[C@@H](C)[C@H](OC)CN(C)C2=O` as the molecule, how does the AC50 [8] read?
A: 0.181 µM (active)

Q: What about the AC50 [9] of the same molecule?
A: 0.0305 µM (active)

Q: What about the AC50 [10] of the same molecule?
A: 0.22 µM (active)

Q: What about the AC50 [11] of the same molecule?
A: 0.016 µM (active)

Q: And the AC50 [12]?
A: 0.874 µM (active)

Q: What about the AC50 [13] of the same molecule?
A: < 0.3 µM (active)

Q: What does the source list for `COc1ccc2c3c([nH]c2c1)[C@H](CO)N(C(=O)Cc1ccccc1)CC31CCN(C(=O)Nc2ccccc2F)CC1`?
A: AC50 [14]: 0.277 µM (active); AC50 [15]: 25.2 µM (active); AC50 [10]: 0.123 µM (active); AC50 [16]: > 100 µM (inactive); AC50 [11]: 0.208 µM (active); AC50 [12]: 0.0977 µM (active); AC50 [13]: 0.472 µM (active)

Q: With `COCc1c(C(C)C)nc(C(C)C)c(/C=C/[C@@H](O)C[C@@H](O)CC(=O)O)c1-c1ccc(F)cc1` [CERIVASTATIN SODIUM] as the molecule, how does the EC50 (BJ [17]) read?
A: < 0.104 µM (active)

Q: What about the EC50 (BJ [18]) of the same molecule?
A: 0.347 µM (inconclusive)

Q: What about the EC50 (BJ [19]) of the same molecule?
A: 0.356 µM (inconclusive)

Q: What about the IC50 [20] of the same molecule?
A: 0.143 µM (active)

Q: And the IC50 [21]?
A: 0.0529 µM (active)

Q: What about the IC50 [22] of the same molecule?
A: 2.51 µM (active)

Q: What about the IC50 [23] of the same molecule?
A: > 10 µM (inactive)

Q: And the IC50 [24]?
A: 0.24 µM (active)

Q: And the IC50 [25]?
A: > 10 µM (inactive)

Q: And the IC50 [26]?
A: 1.01 µM (active)

Q: And the IC50 [27]?
A: 1.21 µM (active)

Q: What about the EC50 [28] of the same molecule?
A: 0.338 µM (inconclusive)

Q: And the IC50 [29]?
A: 1.92 µM (active)

Q: What about the EC50 (BJ [30]) of the same molecule?
A: 0.339 µM (inconclusive)

Q: What about the IC50 [31] of the same molecule?
A: 1.87 µM (active)

Q: With `CC(C)(C)c1nnc(NS(=O)(=O)c2ccccc2)s1` [GLYBUZOLE] as the molecule, how does the IC50 [32] read?
A: 13.1 µM (inactive)

Q: And the IC50 (cells)?
A: > 33.3 µM (inactive)
